Structures are written as SMILES.

The assay concerns the target T1, 15-PGDH/HPGD (Homo sapiens, UniProt P15428).
T1 construct: purchased R&D System 5660-DH
T1 sequence (P15428 1-266): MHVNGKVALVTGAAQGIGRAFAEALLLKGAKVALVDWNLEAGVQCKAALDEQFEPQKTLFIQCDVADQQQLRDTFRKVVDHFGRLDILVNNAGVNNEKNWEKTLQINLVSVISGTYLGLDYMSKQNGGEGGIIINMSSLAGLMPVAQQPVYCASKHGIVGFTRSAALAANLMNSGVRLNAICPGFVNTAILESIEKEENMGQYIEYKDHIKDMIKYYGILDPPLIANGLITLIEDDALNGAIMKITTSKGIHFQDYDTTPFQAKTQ
As to the kind of experiment: hPGDH inhibitor screening biochemical assay. The settings on record: 10 nM enzyme, 15 μM PGE2, 0.25 mM NAD, fluorescence ex/em 340/485 nm. Here is the method:
A hydroxyprostaglandin dehydrogenase inhibition screening biochemical assay can be performed to assess the synthesized inhibitors provided herein. Provided herein is an exemplary biochemical assay for hPGDH inhibitor screening.
The in vitro biochemical assay can be performed in white, 384 plates in total 20 μl reaction volume consisting of 10 nM of 15-PGDH/HPGD (R&D System #5660-DH), 15 μM Prostaglandin E2 (Sigma, C8 t #P5640-10 MG) and 0.25 mM β-Nicotinamide adenine dinucleotide sodium salt (Sigma, C8 t #N0632-5G) made in reaction buffer (50 mM Tris-HCl, pH 7.5, 0.01% Tween 20) at 10-point dose response curve for test/tool compounds. Briefly, 5 μl (4×) of compounds solution and 5 μl (final concentration, 10 nM) of enzyme solution is added to white 384 well plates and incubated for 10 mins at 37° C. 5 μl (4×) of […] and 5 μl (4×) of β-Nicotinamide adenine dinucleotide sodium salt is added to the wells and incubated for 10 mins at room temperature. Fluorescence is recorded at ex/em=340 nm/485 nm. The percentage (%) inhibition of enzyme activity was determined relative to positive control (1% DMSO) and IC50 was calculated using GraphPad prism software (four parameter-variable slope equation).
On to `CC1CCCN(C(=O)c2cnc3c(ccn3-c3ccc(C#N)cc3)c2)C1` (stereo in doubt) [Compound B-10, (R)-4-(5-(3-methylpiperidine-1-carbonyl)-1H-pyrrolo[2,3-b1 pyridin-1-yl)benzonitrile], for which the IC50 was less than 100 nM.
`CCC1CCCN(C(=O)c2cnc3c(ccn3-c3cncc(NC(=O)OC)c3)c2)C1` (stereo in doubt) [Compound B-69, methyl(R)-(5-(5-(3-ethylpiperidine-1-carbonyl)-1H-pyrrolo[2,3-b]pyridin-1-yl)pyridin-3-yl)carbamate] yielded an IC50 of less than 100 nM.
Compound `O=C(c1cnc2c(ccn2-c2cncc(-c3n[nH]c(C4CC4)n3)c2)c1)N1CCC(F)(F)CC1` [Compound B-1, (1-(5-(5-cyclopropyl-1H-1,2,4-triazol-3-yl)pyridin-3-yl)-1H-pyrrolo [2,3-b]pyridin-5-yl)(4,4-difluoropiperidin-1-yl)methanone] displayed an IC50 of less than 100 nM.
In turn, `O=C(c1cnc2c(ccn2-c2ccc(N3CCNC3=O)nc2)c1)N1CCC(F)(F)CC1` [Compound B-2] came in with an IC50 of less than 100 nM.
Consider `C[C@@H]1CCCN(C(=O)c2cnc3c(ccn3-c3ccc(C(=O)O)cc3)c2)C1` [Compound B-3], for which the 50% inhibitory concentration (IC50) is less than 100 nM.
`C[C@H]1CCCN(C(=O)c2cnc3c(ccn3-c3ccc(C(=O)O)cc3)c2)C1` [Compound B-4] showed an IC50 of less than 100 nM.
The compound `C[C@@H]1CCN(C(=O)c2cnc3c(ccn3-c3ccc(C(=O)O)cc3)c2)C1` [Compound B-5] showed an IC50 of less than 100 nM.
The compound `O=C(O)c1ccc(-n2ccc3cc(C(=O)N4CC[C@@H](F)C4)cnc32)cc1` [Compound B-6] had an IC50 of less than 100 nM.
`C[C@H]1CCN(C(=O)c2cnc3c(ccn3-c3ccc(C(=O)O)cc3)c2)C1` [Compound B-7]: the concentration for half-maximal inhibition (IC50) is less than 100 nM.
Turning to `O=C(O)c1ccc(-n2ccc3cc(C(=O)N4CC[C@H](F)C4)cnc32)cc1` [Compound B-8], the concentration for half-maximal inhibition (IC50) was less than 100 nM.
As to `C[C@@H]1CCCN(C(=O)c2cnc3c(ccn3-c3ccc(C#N)cc3)c2)C1` [Compound B-9, (R)-4-(5-(3-methylpiperidine-1-carbonyl)-1H-pyrrolo12,3-b1 pyridin-1-yl)benzonitrile], the IC50 is less than 100 nM.
`Nc1nc(-c2cncc(-n3ccc4cc(C(=O)N5CCC(F)(F)CC5)cnc43)c2)no1` [Compound B-11, (1-(5-(5-amino-1,2,4-oxadiazol-3-yl)pyridin-3-yl)-1H-pyrrolo [2,3-b]pyridin-5-yl)(4,4-difluoropiperidin-1-yl)methanone] displayed an IC50 of less than 100 nM.
For the compound `Nc1nc2ccc(-n3ccc4cc(C(=O)N5CCC(F)(F)CC5)cnc43)cn2n1` [Compound B-12], the IC50 was less than 100 nM.
Compound `O=C(c1cnc2c(ccn2-c2ccc(N3CCN(c4ccc(-n5ccc6cc(C(=O)N7CCC(F)(F)CC7)cnc65)cn4)C3=O)nc2)c1)N1CCC(F)(F)CC1` [Compound B-13] registered an IC50 of 100 to 1000 nM.
In turn, `Cc1cnc(-c2cncc(-n3ccc4cc(C(=O)N5CCC(F)(F)CC5)cnc43)c2)[nH]1` [Compound B-14] returned an IC50 of less than 100 nM.
For the compound `Cc1nc(-c2cncc(-n3ccc4cc(C(=O)N5CCC(F)(F)CC5)cnc43)c2)c[nH]1` [Compound B-15], the IC50 was less than 100 nM.
For `Cc1nc(-c2ccc(-n3ccc4cc(C(=O)N5CCC(F)(F)CC5)cnc43)cn2)c[nH]1` [Compound B-16, (4,4-difluoropiperidin-1-yl)(1-(6-(2-methyl-1H-imidazol-4-yl)pyridin-3-yl)-1H-pyrrolo[2,3-b]pyridin-5-yl)methanone], the IC50 was less than 100 nM.
`Cc1cnc(-c2ccc(-n3ccc4cc(C(=O)N5CCC(F)(F)CC5)cnc43)cn2)[nH]1` [Compound B-17] had an IC50 of less than 100 nM.
In turn, `Cc1nn[nH]c1-c1cncc(-n2ccc3cc(C(=O)N4CCC(F)(F)CC4)cnc32)c1` [Compound B-18, (4,4-difluoropiperidin-1-yl) (1-(5-(4-methyl-1H-1,2,3-triazol-5-yl)pyridin-3-yl)-1H-pyrrolo[2,3-b]pyridin-5-yl)methanone] returned an IC50 of less than 100 nM.
The compound `Cc1[nH]nnc1-c1ccc(-n2ccc3cc(C(=O)N4CCC(F)(F)CC4)cnc32)cn1` [Compound B-19, (4,4-difluoropiperidin-1-yl)(1-(6-(5-methyl-1H-1,2,3-triazol-4-yl)pyridin-3-yl)-1H-pyrrolo[2,3-b]pyridin-5-yl)methanone] returned an IC50 of less than 100 nM.
To `CC(C)(C)Nc1nc(-c2cncc(-n3ccc4cc(C(=O)N5CCC(F)(F)CC5)cnc43)c2)no1` [Compound B-20, (1-(5-(5-(tert-butylamino)-1,2,4-oxadiazol-3-yl)pyridin-3-yl)-1H-pyrrolo[2,3-b]pyridin-5-yl)(4,4-difluoropiperidin-1-yl)methanone] belongs less than 100 nM.
With `Cc1nnc(-c2ccc(-n3ccc4cc(C(=O)N5CCC(F)(F)CC5)cnc43)cn2)[nH]1` [Compound B-21, (4,4-difluoropiperidin-1-yl)(1-(6-(5-methyl-4H-1,2,4-triazol-3-yl)pyridin-3-yl)-1H-pyrrolo[2,3-b]pyridin-5-yl)methanone] the figure was less than 100 nM; with `Cc1nnc(-c2cncc(-n3ccc4cc(C(=O)N5CCC(F)(F)CC5)cnc43)c2)[nH]1` [Compound B-22, (4,4-difluoropiperidin-1-yl) (1-(5-(5-methyl-4H-1,2,4-triazol-3-yl)pyridin-3-yl)-1H-pyrrolo[2,3-b]pyridine-5-yl) methanone], less than 100 nM; with `COc1ccc(Cn2cc(-c3cncc(-n4ccc5cc(C(=O)N6CCC(F)(F)CC6)cnc54)c3)nc2C)cc1` [Compound B-23, (4,4-difluoropiperidin-1-yl)(1-(5-(1-(4-methoxybenzyl)-2-methyl-1H-imidazol-4-yl)pyridin-3-yl)-1H-pyrrolo [2,3-b]pyridin-5-yl)methanone], less than 100 nM.
`COc1ccc(Cn2cc(-c3ccc(-n4ccc5cc(C(=O)N6CCC(F)(F)CC6)cnc54)cn3)nc2C)cc1` [Compound B-24, (4,4-difluoropiperidin-1-yl) (1-(6-(1-(4-methozybenzyl)-2-methyl-1H-imidazol-4-yl)pyridin-3-yl)-1H-pyrrolo[2,3-b]pyridin-5-yl)methanone] had an IC50 of less than 100 nM.
The compound `O=C(c1cnc2c(ccn2-c2ccc(-c3nnc[nH]3)cc2)c1)N1CCC(F)(F)CC1` [Compound B-26, (1-(4-(1H-1,2,4-triazol-5-yl)phenyl)-1H-pyrrolo[2,3-b]pyridin-5-yl)(4,4-difluoropiperidin-1-yl)methanone] came in with an IC50 of less than 100 nM.
With `O=C(O)c1ccc(-n2ccc3cc(C(=O)N4CCC(F)(F)CC4)cnc32)cc1F` [Compound B-27, 4-(5-(4,4-difluoropiperidine-1-carbonyl)-1H-pyrrolo[2,3-b]pyridin-1-yl)-2-fluorobenzoic acid] the figure was less than 100 nM; with `C[C@H]1CCCN(C(=O)c2cnc3c(ccn3-c3ccc(-c4nnc[nH]4)nc3)c2)C1` [Compound B-28], less than 100 nM.
`C[C@H]1CCCN(C(=O)c2cnc3c(ccn3-c3ccc4nc(N)nn4c3)c2)C1` [Compound B-29] had an IC50 of less than 100 nM.
With `C[C@H]1CCCN(C(=O)c2cnc3c(ccn3-c3ccc(N4CCNC4=O)nc3)c2)C1` [Compound B-30] the figure was less than 100 nM.
`C[C@H]1CCCN(C(=O)c2cnc3c(ccn3-c3ccc(-c4nc[nH]n4)cc3)c2)C1` [Compound B-33, (S)-(1-(4-(1H-1,2,4-triazol-3-yl)phenyl)-1H-pyrrolo[2,3-b]pyridin-5-yl)(3-methylpiperidin-1-yl)methanone] displayed an IC50 of less than 100 nM.

As usually defined, the IC50 is the concentration that inhibits the measured activity by half. Lower therefore signals inhibition by little substance.

These data come from patent US20240294519A1, “PYRROLO[2,3-b]PYRIDINE PGDH INHIBITORS AND METHODS OF MAKING AND USING” (EPIRIUM BIO INC., priority 2021, published 2024).
